Reference: patent US20230053688A1, “METHODS TO ALTER LATENCY IN EBV+ MALIGNANCIES” (Cornell University, priority 2020, published 2023)
Structures can show the parent of a compound that is named as a salt. Where two headings read alike, the source gives them in different places.

Test system: LMP1 expression in Kem I cells
Test: microbe, parasite or virus in culture
Format: cell-based, EBV
Conditions: for Average LMP1 Fold Increase / Replicate 1-LMP1 Fold Increase / Replicate 2-LMP1 Fold Increase: Kem I cells, 48 hours; for fold induction at 2.5 µM: human gammaherpesvirus 4, 48 h
[1] = 2.5 uM, average of replicates 1 and 2
[2] = 2.5 uM, fold change in LMP1 transcript vs vehicle
[3] = read-out: Average LMP1 Fold Increase, Kem I cells, dose 2.5 uM, 48 hours, LMP1 transcript by in-well qRT-PCR, average of the two replicates
[4] = read-out: Replicate 1-LMP1 Fold Increase, Kem I cells, dose 2.5 uM, 48 hours, LMP1 transcript by in-well qRT-PCR, screen replicate 1
[5] = read-out: Replicate 2-LMP1 Fold Increase, Kem I cells, dose 2.5 uM, 48 hours, LMP1 transcript by in-well qRT-PCR, screen replicate 2
[6] = dose 2.5 uM, LMP1 transcript by in-well qRT-PCR, average of the two replicates
[7] = dose 2.5 uM, LMP1 transcript by in-well qRT-PCR, screen replicate 1
[8] = dose 2.5 uM, LMP1 transcript by in-well qRT-PCR, screen replicate 2
[9] = read-out: Average LMP1 Fold Increase, Kem I cells, 2.5 uM, 48 hours, average of replicates 1 and 2
[10] = read-out: Replicate 1-LMP1 Fold Increase, Kem I cells, 2.5 uM, 48 hours, fold change in LMP1 transcript vs vehicle
[11] = read-out: Replicate 2-LMP1 Fold Increase, Kem I cells, 2.5 uM, 48 hours, fold change in LMP1 transcript vs vehicle
[12] = 1 uM, fold change in LMP1 transcript vs vehicle

Row | Compound | Average LMP1 Fold Increase [1] | Replicate 1-LMP1 Fold Increase [2] | Replicate 2-LMP1 Fold Increase [2] | further results
1 | CS(=O)(=O)c1cccc(CNc2nc(Nc3ccc4c(c3)CCC(=O)N4)ncc2C(F)(F)F)c1 [PF-573228] | 0.66 | 0.87 | 0.45 | 
2 | CN(C)CCOc1ccc(/C(=C(/CCCl)c2ccccc2)c2ccccc2)cc1 [Toremifene Citrate] |  |  |  | fold induction at 2.5 µM [3]: 0.54; fold induction at 2.5 µM [4]: 0.55; fold induction at 2.5 µM [5]: 0.54
3 | COc1ccc2c(c1)c(CC(=O)N1CCOCC1)c(C)n2C(=O)c1ccc(Cl)cc1 [BML-190] | 0.77 | 1.01 | 0.53 | 
4 | c1ccc(NCc2ccc(CNc3ccccn3)cc2)nc1 [WZ811] |  |  |  | Average LMP1 Fold Increase [6]: 0.08 fold; Replicate 1-LMP1 Fold Increase [7]: 0.08 fold; Replicate 2-LMP1 Fold Increase [8]: 0.08 fold
5 | C[C@@H]1CN(CC(=O)Nc2ccc3c(c2)Cc2cccc(-c4cc(=O)cc(N5CCOCC5)o4)c2S3)C[C@H](C)O1 [KU-60019] |  |  |  | fold induction at 2.5 µM [9]: 0.51; fold induction at 2.5 µM [10]: 0.49; fold induction at 2.5 µM [11]: 0.53
6 | O=C(O)c1ccc(N2C(=O)/C(=C\c3ccc(-c4ccc([N+](=O)[O-])cc4)o3)C=C2c2ccccc2)cc1 [4E1RCat] | 0.71 | 0.30 | 1.12 | 
7 | CC(C)c1c(C(=O)Nc2ccccc2)c(-c2ccccc2)c(-c2ccc(F)cc2)n1CC[C@@H](O)C[C@@H](O)CC(=O)[O-].CC(C)c1c(C(=O)Nc2ccccc2)c(-c2ccccc2)c(-c2ccc(F)cc2)n1CC[C@@H](O)C[C@@H](O)CC(=O)[O-].[Ca+2] [Atorvastatin Calcium] | 0.09 | 0.05 | 0.14 | 
8 | NC(=O)c1ncn([C@@H]2O[C@H](CO)[C@@H](O)[C@H]2O)c1N [Acadesine] |  |  |  | fold induction at 2.5 µM [9]: 0.58; fold induction at 2.5 µM [10]: 0.57; fold induction at 2.5 µM [11]: 0.59
9 | COc1ccc(-c2cnc3c(-c4cccc5ncccc45)cnn3c2)cc1 [ML347] | 0.34 | 0.19 | 0.49 | 
10 | O=C(/C=C/c1ccccc1)NC(NC(=S)Nc1ccc(Cl)cc1)C(Cl)(Cl)Cl (stereo not shown) [Sal003] | 0.64 | 0.76 | 0.53 | 
11 | O=C(O)C(Cc1ccccc1[N+](=O)[O-])=NNc1nc(-c2ccc(Cl)c(Cl)c2)cs1 (mixture of isomers) [4EGI-1] | 0.64 | 0.41 | 0.86 | 
12 | CC(C)c1noc(N2CCC(COc3ccc(-c4ccc(S(C)(=O)=O)cc4)nc3)CC2)n1 [GSK1292263] | 0.27 | 0.20 | 0.34 | 
13 | Nc1ccn([C@@H]2O[C@H](CO)[C@@H](O)[C@@H]2O)c(=O)n1 [Cytarbine] |  |  |  | Average LMP1 Fold Increase (1 uM, average of replicates 1 and 2): 2.31; Replicate 1-LMP1 Fold Increase [12]: 2.61; Replicate 2-LMP1 Fold Increase [12]: 2.01
14 | Cc1cc(C)nc(NS(=O)(=O)c2ccc(NC(=S)NC(=O)COc3ccc(Br)cc3Cl)cc2)n1 [ZCL278] |  |  |  | Average LMP1 Fold Increase [6]: 0.85 fold; Replicate 1-LMP1 Fold Increase [7]: 1.26 fold; Replicate 2-LMP1 Fold Increase [8]: 0.44 fold
15 | S=C=Nc1cccc(NC(=S)NCCCCNC(=S)Nc2cccc(N=C=S)c2)c1 [MRS 2578] | 0.47 | 0.64 | 0.31 | 
16 | Cc1cnc(NC(=O)Nc2cc(Br)c(C)cc2OC[C@@H]2CNCCO2)cn1 [LY2603618] | 1.21 | 0.94 | 1.47 | 
17 | COC(=O)C1=C(C#N)NC(C)=C(C(=O)OC(C)C)C1c1cccc([N+](=O)[O-])c1 (stereo not shown) [Nilvadipine] |  |  |  | fold induction at 2.5 µM [9]: 0.72; fold induction at 2.5 µM [10]: 0.96; fold induction at 2.5 µM [11]: 0.47
18 | C#Cc1cccc(Nc2ncnc3cc(OCCOC)c(OCCO)cc23)c1 [OSI-420] | 0.66 | 0.84 | 0.49 | 
19 | C[C@H]1COC2=C1C(=O)C(=O)c1c2ccc2c1CCCC2(C)C [Cryptotanshinone] |  |  |  | fold induction at 2.5 µM [9]: 0.85; fold induction at 2.5 µM [10]: 0.94; fold induction at 2.5 µM [11]: 0.77
20 | Cc1nc(C(=O)NCC(=O)O)c(O)c2ccc(Oc3ccccc3)cc12 [FG-4592] |  |  |  | fold induction at 2.5 µM [9]: 0.22; fold induction at 2.5 µM [10]: 0.19; fold induction at 2.5 µM [11]: 0.24
21 | CCOC(=O)[C@H]1O[C@@H]1C(=O)N[C@@H](CC(C)C)C(=O)NCCC(C)C [Aloxistatin] |  |  |  | fold induction at 2.5 µM [9]: 0.11; fold induction at 2.5 µM [10]: 0.1; fold induction at 2.5 µM [11]: 0.12

Row | Compound | Average LMP1 Fold Increase [1] | Replicate 1-LMP1 Fold Increase [2] | Replicate 2-LMP1 Fold Increase [2] | further results
22 | CCc1cc(Nc2nccc(-c3c(-c4ccc(OC)c(C(=O)Nc5c(F)cccc5F)c4)nc4ccccn34)n2)c(OC)cc1N1CCC(N2CCN(S(C)(=O)=O)CC2)CC1 [GSK1904529A] | 0.20 | 0.18 | 0.23 | 
23 | Cc1[nH]c(/C=C2\C(=O)Nc3ccc(S(=O)(=O)N(C)c4cccc(Cl)c4)cc32)c(C)c1C(=O)N1CCN(C)CC1 [SU11274] |  |  |  | fold induction at 2.5 µM [9]: 0.94; fold induction at 2.5 µM [10]: 1.05; fold induction at 2.5 µM [11]: 0.82
24 | CC1=C(C(=O)OC2CCCCC2)C(c2ccc([N+](=O)[O-])cc2)C2=C(CC(C)(C)CC2=O)N1 (stereo not shown) [FLI-06] | 0.46 | 0.19 | 0.73 | 
25 | CC(C)c1ccc(NC(=O)Cn2cnc3c2c(=O)n(C)c(=O)n3C)cc1 [HC-030031] | 0.28 | 0.32 | 0.24 | 
26 | COc1ccc2c(c1)c(C1=C(c3c[nH]c4ccccc34)C(=O)NC1=O)cn2CCCN(C)C [Go 6983] | 0.34 | 0.22 | 0.45 | 
27 | Cc1ccc(C(=O)N(CCCN)[C@@H](c2nc3cc(Cl)ccc3c(=O)n2Cc2ccccc2)C(C)C)cc1 [Ispinesib (SB-715992)] | 1.57 | 2.72 | 0.43 | 
28 | Cc1cc(C(C)(C)C)c(O)c(C)c1CC1=NCCN1 [Oxymetazoline HCl] |  |  |  | fold induction at 2.5 µM [9]: 0.66; fold induction at 2.5 µM [10]: 0.6; fold induction at 2.5 µM [11]: 0.72
29 | O=C(O)c1cccc(-c2noc(-c3ccccc3F)n2)c1 [Ataluren (PTC124)] | 0.49 | 0.50 | 0.48 | 
30 | O=C(Nc1ccncc1)c1cc([N+](=O)[O-])ccc1Cl [T0070907] |  |  |  | Average LMP1 Fold Increase [6]: 0.56 fold; Replicate 1-LMP1 Fold Increase [7]: 0.63 fold; Replicate 2-LMP1 Fold Increase [8]: 0.50 fold
31 | CCCSc1nc(N[C@@H]2C[C@H]2c2ccc(F)c(F)c2)c2nnn([C@@H]3C[C@H](OCCO)[C@@H](O)[C@H]3O)c2n1 [Ticagrelor] |  |  |  | fold induction at 2.5 µM [3]: 0.66; fold induction at 2.5 µM [4]: 0.61; fold induction at 2.5 µM [5]: 0.7
32 | COc1cc2c(N3CCN(C(=O)Nc4ccc(OC(C)C)cc4)CC3)ncnc2cc1OCCCN1CCCCC1 [Tandutinib (MLN518)] |  |  |  | Average LMP1 Fold Increase [6]: 0.31 fold; Replicate 1-LMP1 Fold Increase [7]: 0.21 fold; Replicate 2-LMP1 Fold Increase [8]: 0.41 fold
33 | CCCCc1nc(Cl)c(CO)n1Cc1ccc(-c2ccccc2-c2nnn[n-]2)cc1.[K+] [Losartan Potassium (DuP 753)] | 0.35 | 0.21 | 0.48 | 
34 | C[C@@H]1COCCN1c1cc(C2(S(C)(=O)=O)CC2)nc(-c2cccc3[nH]ccc23)n1 [AZ20] | 1.39 | 1.56 | 1.22 | 
35 | KX2-391 | 1.63 | 2.01 | 1.25 | 
36 | CC(/C=C/C(=O)NO)=C\[C@@H](C)C(=O)c1ccc(N(C)C)cc1 [Trichostatin A (TSA)] |  |  |  | Average LMP1 Fold Increase [6]: 88.29 fold; Replicate 1-LMP1 Fold Increase [7]: 44.18 fold; Replicate 2-LMP1 Fold Increase [8]: 132.40 fold
37 | C[C@]1(c2nc3c(C(N)=O)cccc3[nH]2)CCCN1 [Veliparib (ABT-888)] |  |  |  | Average LMP1 Fold Increase [6]: 1.08 fold; Replicate 1-LMP1 Fold Increase [7]: 0.71 fold; Replicate 2-LMP1 Fold Increase [8]: 1.45 fold
38 | CCc1c2c(nc3ccc(OC(=O)N4CCC(N5CCCCC5)CC4)cc13)-c1cc3c(c(=O)n1C2)COC(=O)[C@]3(O)CC [Irinotecan] | 0.59 |  |  | 
39 | C1=N/C2=N/c3ccc(OCCN4CCCC4)c(c3)COC/C=C/COCc3cccc(c3)C(=C1)N2 [Pacritinib (SB1518)] | 0.37 | 0.24 | 0.49 | 
40 | O=c1ncn2nc(Sc3ccc(F)cc3F)ccc2c1-c1c(Cl)cccc1Cl [VX-745] |  |  |  | fold induction at 2.5 µM [3]: 0.49; fold induction at 2.5 µM [4]: 0.75; fold induction at 2.5 µM [5]: 0.24
41 | CN1CCC[C@@H]1CCO[C@](C)(c1ccccc1)c1ccc(Cl)cc1 [Clemastine Fumarate] |  |  |  | fold induction at 2.5 µM [9]: 0.67; fold induction at 2.5 µM [10]: 0.64; fold induction at 2.5 µM [11]: 0.69
